Among the test systems are IGROV1 ovarian; BT-549 breast; SF-539 CNS; 786-0 renal; PC-3 prostate; MDA-MB-231 breast; CAKI-1 renal; K-562 leukemia; HCC-2998 colon; HCT-15 colon; SF-268 CNS; MCF7 breast; NCI-H522 lung.
Holding throughout (assay): DTP human tumour cell line panel, 48 h

SMILES strings stand for the structures.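 Compound exposure: 48 hours, 5 concentrations, 96-well plates. TGI marks complete inhibition of growth.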 Where a SMILES comes first, the peptide text is derived from it. The star is where a group is joined. Fmoc = O=C(OCC1c2ccccc2-c2ccccc21)*; OtBu = CC(C)(C)O*

A word on the TGI: it is the concentration giving total growth inhibition. The low end stands for greater sensitivity of the cells, the high end for lower sensitivity of the cells.

Regarding `COc1ccc(C(CC2(c3ccc(OC)cc3)SCCCS2)NC(C)=O)cc1` (stereo not given), the total growth inhibition concentration (TGI) in the assay with IGROV1 ovarian is over 100 µM; in the assay with BT-549 breast, over 100 µM; in the assay with SF-539 CNS it was over 100 µM; with 786-0 renal, over 100 µM; with PC-3 prostate, 69 µM; in the assay with MDA-MB-231 breast, over 100 µM. For the same molecule, the TGI in the assay on CAKI-1 renal, in the assay on K-562 leukemia, in the assay on HCC-2998 colon, with HCT-15 colon, with SF-268 CNS and in the assay with MCF7 breast was over 100 µM in each case. Moreover, the TGI in the assay with NCI-H522 lung was over 100 µM.

For the molecule `CC(C)C(NC(=O)OCC1c2ccccc2-c2ccccc21)C(=O)NC(CCC(=O)OC(C)(C)C)C(=O)OC(C)(C)C` (stereo not given) (Fmoc-Val-Glu(OtBu)-OtBu; configuration not given here), the TGI is over 100 µM in the assay on IGROV1 ovarian; over 100 µM in the assay on BT-549 breast; over 92 µM with SF-539 CNS; over 100 µM with 786-0 renal; over 100 µM in the assay on PC-3 prostate; over 100 µM with MDA-MB-231 breast. Besides, the TGI with CAKI-1 renal, in the assay on K-562 leukemia, with HCC-2998 colon, in the assay on HCT-15 colon, with SF-268 CNS and in the assay with MCF7 breast was over 100 µM in each case. In the assay with NCI-H522 lung, this molecule displayed a TGI of over 100 µM.

For `CC(C)[N+]([O-])(CCCNc1c2ccccc2nc2cccc([N+](=O)[O-])c12)C(C)C`, the TGI in the assay on IGROV1 ovarian came to 0.488 µM; in the assay with BT-549 breast, 0.221 µM; in the assay on SF-539 CNS, 0.24 µM; in the assay with 786-0 renal it was 10.1 µM; in the assay with PC-3 prostate, 11.5 µM; with MDA-MB-231 breast, 0.441 µM. Besides, the TGI was 6.2 µM in the assay on CAKI-1 renal; over 100 µM with K-562 leukemia; 0.0227 µM in the assay on HCC-2998 colon; 1.58 µM with HCT-15 colon; 3.14 µM in the assay with SF-268 CNS; 14.9 µM in the assay with MCF7 breast. Besides, in the assay on NCI-H522 lung, the TGI amounted to 0.147 µM.

On to `Nc1nc(Cl)cc(NCC2(O)CCC2)n1`, for which the TGI in the assay with IGROV1 ovarian, in the assay on BT-549 breast, in the assay on SF-539 CNS, in the assay with 786-0 renal, with PC-3 prostate and in the assay on MDA-MB-231 breast was over 100 µM throughout. For the same molecule, the TGI in the assay with CAKI-1 renal, with K-562 leukemia, with HCC-2998 colon, with HCT-15 colon, with SF-268 CNS and in the assay on MCF7 breast was over 100 µM in each case. Further, in the assay on NCI-H522 lung, the TGI was over 100 µM.

Consider `CCOC1OC(COC(=O)C(C)(C)C)C(O)CC1n1cc(C)c(=O)[nH]c1=O` (stereo not given), for which the TGI in the assay with IGROV1 ovarian, with BT-549 breast, with SF-539 CNS, with 786-0 renal, in the assay with PC-3 prostate and in the assay with MDA-MB-231 breast was over 100 µM each time. The TGI in the assay with CAKI-1 renal, with K-562 leukemia, in the assay on HCC-2998 colon, with HCT-15 colon, with SF-268 CNS and with MCF7 breast was over 100 µM in each case. The TGI in the assay on NCI-H522 lung was over 100 µM.

For `O=C1/C(=C/c2cccc(Cl)c2)CCCc2ccccc21`, the TGI turned out to be 31.8 µM in the assay with IGROV1 ovarian; 44.5 µM with BT-549 breast; 32.1 µM in the assay on SF-539 CNS; 33.7 µM with 786-0 renal; 38.3 µM in the assay on PC-3 prostate; 38.2 µM in the assay on MDA-MB-231 breast. In addition, the TGI in the assay on CAKI-1 renal is 94.5 µM; in the assay on K-562 leukemia, 34 µM; with HCC-2998 colon, 32.5 µM; with HCT-15 colon, 39.2 µM; with SF-268 CNS, 33.4 µM; with MCF7 breast, 27.4 µM. The molecule further registered a TGI in the assay with NCI-H522 lung of 32.1 µM.

In the case of `Cc1ccc(O)c(C(c2cccc(C(c3cc(C)ccc3O)c3cc(C)ccc3O)c2)c2cc(C)ccc2O)c1`, the TGI in the assay on IGROV1 ovarian turned out to be 3.02 µM; in the assay on BT-549 breast, 4.11 µM; with SF-539 CNS, 3.35 µM; with 786-0 renal, 3.18 µM; with PC-3 prostate it was 3.29 µM; in the assay on MDA-MB-231 breast, 2.83 µM. Moreover, the TGI turned out to be 3.04 µM in the assay with CAKI-1 renal; 3.37 µM with K-562 leukemia; 3.48 µM in the assay with HCC-2998 colon; 3.31 µM with HCT-15 colon; 3.33 µM with SF-268 CNS; 3.18 µM in the assay on MCF7 breast. Further, the TGI in the assay with NCI-H522 lung was 3.03 µM.

On to `O=C1NC2c3c(I)sc(I)c3C(=O)C2O1` (stereo not given), for which the TGI with IGROV1 ovarian is 8.01 µM; in the assay on BT-549 breast, 15.9 µM; in the assay on SF-539 CNS, 4.92 µM; in the assay with 786-0 renal, 20.9 µM; with PC-3 prostate, 19 µM; in the assay on MDA-MB-231 breast, 7.86 µM. Besides, the TGI was 9.36 µM in the assay on CAKI-1 renal; over 59.9 µM in the assay on K-562 leukemia; 15.5 µM in the assay with HCC-2998 colon; 3.63 µM with HCT-15 colon; 21.5 µM with SF-268 CNS; 13.7 µM in the assay on MCF7 breast. For the same molecule, the TGI in the assay on NCI-H522 lung turned out to be 3.16 µM.

Turning to `CCN1CCC(O)(c2ccc(Oc3ccc(Cl)cc3)cc2)C(C(=O)c2ccc(Oc3ccc(Cl)cc3)cc2)C1` (stereo not given), the TGI was found to be 23.5 µM with IGROV1 ovarian; 29.7 µM with BT-549 breast; 30.3 µM in the assay on SF-539 CNS; 12.3 µM in the assay on 786-0 renal; 21.3 µM in the assay with PC-3 prostate; 29.4 µM with MDA-MB-231 breast. Also, the TGI was 27.3 µM in the assay with CAKI-1 renal; over 100 µM in the assay on K-562 leukemia; 25 µM in the assay on HCC-2998 colon; 19.9 µM in the assay with HCT-15 colon; 44.3 µM in the assay with SF-268 CNS; 19.9 µM in the assay with MCF7 breast. In addition, in the assay with NCI-H522 lung, the TGI amounted to 12 µM.

For `CCOC(=O)C1(C#N)OC(=O)c2cnccc21` (stereo not given), the TGI in the assay on IGROV1 ovarian, in the assay on BT-549 breast, with SF-539 CNS, in the assay with 786-0 renal, in the assay on PC-3 prostate and in the assay with MDA-MB-231 breast was over 100 µM throughout. Also, the TGI with CAKI-1 renal, in the assay on K-562 leukemia, in the assay on HCC-2998 colon, with HCT-15 colon, in the assay with SF-268 CNS and in the assay on MCF7 breast was over 100 µM each time. In addition, the TGI in the assay with NCI-H522 lung was over 100 µM.

The values are drawn from PubChem BioAssay (NCI).
